A short description of one experiment: DPPH antioxidant assay. Format: physicochemical. The following applies: for % Inhibition (DPPH free radicals): mean ± SEM. How it is done: To evaluate the in-vitro antioxidant potential of the synthesized derivatives, a previously reported 1,1 Diphenyl, 2 Picrylhydrazyl (DPPH) assay was utilized. The DPPH solution was prepared by dissolving twenty-four mg DPPH in methanol (100 ml). Test sample solutions in various concentrations (62.50 to 1000 μg/mL) were also prepared. From each dilution, 1 ml sample solution was taken to which 1 ml solution of DPPH was added. The solution mixture was incubated at 23°C for 30 minutes in the dark and then subjected to a UV-visible spectrophotometer to note the absorbance at 517 nm. The absorbance values of all samples were taken in triplicate. Ascorbic acid served as positive control, while negative control only contained a solution of DPPH having no test samples. The % free radical scavenging potential of our compounds was determined by the given formula.
% free radical scavenging activity = [drawing 2] x100
X is the control absorbance, whereas X1 is the absorbance of the test sample.

Experiment [1] addresses T1, AChE (source Electric eel) (Electrophorus electricus, UniProt O42275).
T1 construct: from tissue
The experiment in a line: biochemical.

The values below come from publication PMC12645137 (Current Neuropharmacology, 2025).

T1 sequence (O42275 24-633): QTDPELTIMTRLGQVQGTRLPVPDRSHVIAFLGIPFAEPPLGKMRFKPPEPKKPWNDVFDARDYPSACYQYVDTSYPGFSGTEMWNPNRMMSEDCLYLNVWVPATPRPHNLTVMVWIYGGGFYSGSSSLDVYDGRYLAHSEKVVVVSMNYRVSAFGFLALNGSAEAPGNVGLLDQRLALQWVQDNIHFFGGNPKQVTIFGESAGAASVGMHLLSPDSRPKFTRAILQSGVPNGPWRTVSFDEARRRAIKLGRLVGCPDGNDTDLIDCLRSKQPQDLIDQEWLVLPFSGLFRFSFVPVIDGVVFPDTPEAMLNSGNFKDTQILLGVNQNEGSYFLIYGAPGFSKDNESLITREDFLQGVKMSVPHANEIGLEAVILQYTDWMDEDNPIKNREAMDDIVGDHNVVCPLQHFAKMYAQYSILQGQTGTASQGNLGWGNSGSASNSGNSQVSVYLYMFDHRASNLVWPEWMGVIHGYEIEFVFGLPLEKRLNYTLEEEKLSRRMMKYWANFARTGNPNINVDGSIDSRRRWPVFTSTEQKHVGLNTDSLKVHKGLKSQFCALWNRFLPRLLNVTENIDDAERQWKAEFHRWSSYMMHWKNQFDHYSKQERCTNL

With `COc1ccc(C/N=C(/C)[C@H]2CC[C@H]3[C@@H]4CCC5=CC(=O)CC[C@]5(C)[C@H]4CC[C@]23C)cc1` [AN1, (8S,9S,10R,13S,14S)-17-((Z)-1-((4-methoxybenzyl)imino)ethyl)-10,13-dimethyl-1,2,6,7,8,9,10,11,12,13,14,15,16,17-tetradecahydro-3H-cyc-lopenta[a]phenanthren-3-one], the IC50 in “DPPH antioxidant assay” was 57.2 µM; in experiment [1], 56.5 µM. The “% Inhibition (DPPH free radicals)” value in the experiment “DPPH antioxidant assay” (62.5 µg/ml) is on record as 56.46 ± 1.12%; in “DPPH antioxidant assay” (125 µg/ml), 67.64 ± 3.04%; in “DPPH antioxidant assay” (250 µg/ml), 70.00 ± 3.95%; in “DPPH antioxidant assay” (500 µg/ml) it was 76.15 ± 2.31%; in the experiment “DPPH antioxidant assay” (1000 µg/ml), 83.37 ± 2.03%. Further, the inhibition at 125 µg/mL in experiment [1] (read-out: % AChE Inhibition) is 69.4%. Besides, the inhibition at 250 µg/mL in experiment [1] (read-out: % AChE Inhibition) is 76.3%. Besides, the inhibition at 500 µg/mL in experiment [1] (read-out: % AChE Inhibition) was 83.2%. The inhibition at 1000 µg/mL in experiment [1] (read-out: % AChE Inhibition) stood at 88.9 ± 1.2%.
